Test results as given in ChEMBL document CHEMBL3808275, “Design, synthesis and SARs of novel salicylanilides as potent inhibitors of RANKL-induced osteoclastogenesis and bone resorption” (Eur J Med Chem, 2016).

What was measured:
[1] = Cytotoxicity against mouse RAW264.7 cells assessed as survival rate at 2.5 uM after 24 hrs by MTT assay; assay type: cell-based; conditions: read-out: Survival
[2] = Cytotoxicity against mouse RAW264.7 cells assessed as reduction in cell viability after 24 hrs by MTT assay; assay type: cell-based
RAW264.7 [3] = assay: Cytotoxicity against mouse RAW264.7 cells assessed as reduction in cell viability at 5 uM after 24 hrs by MTT assay; assay type: cell-based; conditions: raw264.7, 24 h
RAW264.7 [4] = assay: Inhibition of RANKL-induced osteoclast differentiation in mouse RAW264.7 cells assessed as TRAP-positive multinucleated cells level at 2.5 uM incubated with compound in presence of RANKL for 4 days by TRAP staining based light microscopic analysis relative to RANKL alone; assay type: functional; parameters: scale not given: the % may be the effect or the level left

SMILES | viability at 24 h, 2.5 µM [1] [%] | CC50 at 24 h [2] [µM] | Activity (RAW264.7 [3]) | Activity (RAW264.7 [4]) [%]
O=c1oc2ccccc2c(=O)n1-c1ccc(Cl)cc1F | 92.5 | 24.4 | Toxic | 71.1
O=C(Nc1ccc(Cl)cc1F)c1cc(Br)ccc1O | 103 | 9.2 | Toxic | 39.6
O=C(O)c1cc(Br)ccc1O | 101 | > 40 | Toxic | 96.5
O=C(Nc1ccc(F)cc1F)c1cc(Br)ccc1O | 91.9 | 13.8 | Toxic | 95.2
O=C1c2cc(F)ccc2Oc2cc([N+](=O)[O-])ccc2N1c1ccc(F)cc1F | 90.1 | > 40 | Toxic | 92.4
O=C1c2cc(I)ccc2Oc2cc([N+](=O)[O-])ccc2N1c1ccc(F)cc1F | 98.2 | > 40 | Toxic | 85.4
O=C1c2cc(F)ccc2Oc2cc([N+](=O)[O-])ccc2N1c1ccc(I)cc1F | 95.3 | > 40 | Toxic | 85.3
O=C1c2cc(Br)ccc2Oc2cc([N+](=O)[O-])ccc2N1c1ccc(Cl)cc1F | 102 | > 40 | Toxic | 67.1
O=C(Nc1ccc(I)cc1F)c1cc(I)ccc1O | 94.2 | 6 | Toxic | 35.1
O=c1oc2ccc(I)cc2c(=O)n1-c1ccc(I)cc1F | 107 | 7.6 | Toxic | 36.1
O=c1oc2ccc(F)cc2c(=O)n1-c1ccc(Cl)cc1F | 107 | 7.9 | Toxic | 29.8
O=C1c2cc(Br)ccc2Oc2cc([N+](=O)[O-])ccc2N1c1ccc(I)cc1F | 93.2 | > 40 | Toxic | 78.1
O=c1oc2ccc(F)cc2c(=O)n1-c1ccc(F)cc1F | 103 | 19.9 | Toxic | 89.7
O=c1oc2ccccc2c(=O)n1-c1ccc(I)cc1F | 105 | 24.5 | Toxic | 66.7
O=c1oc2ccc(Br)cc2c(=O)n1-c1ccc(F)cc1F | 107 | 16 | Toxic | 98.3
O=c1oc2ccc(I)cc2c(=O)n1-c1ccc(Br)cc1F | 109 | 8.3 | Toxic | 58.2
O=C(O)c1cc(Cl)ccc1O [5-CHLOROSALICYLIC ACID] | 113 | > 40 | Toxic | 96.6
O=C(Nc1ccc(F)cc1F)c1cc(I)ccc1O | 103 | 13.7 | Toxic | 80.5
O=C1c2ccccc2Oc2cc([N+](=O)[O-])ccc2N1c1ccc(I)cc1F | 87.2 | > 40 | Toxic | 88.6
O=C1c2cc(Cl)ccc2Oc2cc([N+](=O)[O-])ccc2N1c1ccc(Cl)cc1F | 100 | > 40 | Toxic | 59.4

SMILES | viability at 24 h, 2.5 µM [1] [%] | CC50 at 24 h [2] [µM] | Activity (RAW264.7 [3]) | Activity (RAW264.7 [4]) [%]
O=C(O)c1cc(F)ccc1O | 102 | > 40 | Toxic | 90.9
O=C1c2ccccc2Oc2cc([N+](=O)[O-])ccc2N1c1ccc(Cl)cc1F | 103 | > 40 | Toxic | 97.1
O=C1c2cc(Br)ccc2Oc2cc([N+](=O)[O-])ccc2N1c1ccc(Br)cc1F | 88.7 | > 40 | Toxic | 84.2
O=c1oc2ccc(Cl)cc2c(=O)n1-c1ccc(Br)cc1F | 114 | 8.1 | Toxic | 45.5
O=C(Nc1ccc(F)cc1F)c1cc(Cl)ccc1O | 109 | 14.6 | Toxic | 93.3
O=C(Nc1ccc(Br)cc1F)c1cc(I)ccc1O | 104 | 8.4 | Toxic | 29.9
O=c1oc2ccc(Br)cc2c(=O)n1-c1ccc(I)cc1F | 96.8 | 7.9 | Toxic | 39
O=C1c2cc(F)ccc2Oc2cc([N+](=O)[O-])ccc2N1c1ccc(Cl)cc1F | 91.2 | > 40 | Toxic | 93.1
O=C1c2cc(Br)ccc2Oc2cc([N+](=O)[O-])ccc2N1c1ccc(F)cc1F | 94 | > 40 | Toxic | 90.1
O=c1oc2ccc(Cl)cc2c(=O)n1-c1ccc(Cl)cc1F | 99.4 | 6.8 | Toxic | 32.8
O=C1c2cc(Cl)ccc2Oc2cc([N+](=O)[O-])ccc2N1c1ccc(F)cc1F | 99.6 | > 40 | Toxic | 70.6
O=c1oc2ccc(I)cc2c(=O)n1-c1ccc(F)cc1F | 97.5 | 15.7 | Toxic | 84.8
O=C1c2cc(I)ccc2Oc2cc([N+](=O)[O-])ccc2N1c1ccc(Br)cc1F | 93.4 | > 40 | Toxic | 84.8
O=c1oc2ccc(F)cc2c(=O)n1-c1ccc(Br)cc1F | 103 | 7.2 | Toxic | 25.5
O=C1c2cc(Cl)ccc2Oc2cc([N+](=O)[O-])ccc2N1c1ccc(I)cc1F | 89.3 | > 40 | Toxic | 73.8
O=C(Nc1ccc(F)cc1F)c1cc(F)ccc1O | 99.2 | 15.7 | Toxic | 93.7
O=C(Nc1ccc(Cl)cc1F)c1cc(I)ccc1O | 94 | 8.5 | Toxic | 26.1
O=C(Nc1ccc(Cl)cc1F)c1cc(F)ccc1O | 99.5 | 7.7 | Toxic | 27.1
O=c1oc2ccc(Br)cc2c(=O)n1-c1ccc(Cl)cc1F | 82.1 | 7.5 | Toxic | 67.4
O=c1oc2ccc(Cl)cc2c(=O)n1-c1ccc(F)cc1F | 116 | 13.4 | Toxic | 91.9
